Experimental data published in patent US20160223562A1, “Method for Determining the Concentration of a Peptide” (JPT Peptide Technologies GmbH, priority 2010, published 2016).
Square brackets hold non-standard residues; d marks the D form. Peptide text beside a SMILES is read from it. Tyr(3-NO2) = N[C@@H](Cc1ccc(O)c([N+](=O)[O-])c1)C(=O)O

Experiments:
Trypsin [1] = biological target: T1, Trypsin (Sus scrofa, UniProt P00761); test: Trypsin cleavage of C-terminal quantification tag -SA-nitroTyr-G from peptides, LC-MS with UV detection at 350 nm; type: biochemical; conditions: for Percent Cleavage of Tag [by UV at 350 nm]: after reduction and alkylation, trypsin enzyme/substrate 1:50 over night at RT
T1 construct: purchased Promega Corporation V511
Procedure: 23 peptides carrying the C-terminal quantification-tag-SA-nitroTyr-G-OH (SEQ ID NO:2) were synthesized by Fmoc-based solid phase peptide synthesis and purified by HPLC. Each peptide was subjected to the following trypsin cleavage protocol:
(§1) Trypsin Activation: Trypsin (20 μg, sequencing grade modified trypsin, Promega Corporation, Madison, Wis., USA, catalogue no. V511, specific activity 16.965 u/mg) was dissolved in Trypsin resuspension buffer (200 μL, Promega, catalogue no. V542A, ingredient 50 mM acetic acid) and incubated for 15 min at 37° C.
(§2) Reduction and alkylation: The peptide (approx. 0.05 mg) was dissolved in 1 M urea and 100 mM fresh ammonium hydrogen carbonate (300 μL). TCEP (Tris(2-carboxyethyl) phosphine hydrochloride, 0.2 M, 7.5 μL, final concentration 5 mM) was added and the solution incubated at 37° C. for 1 h. After addition of iodoacetamide (0.5 M, 6.0 μL, final concentration 10 mM) the solution was incubated at RT in the dark for another 30 min. Digestion: The sample was digested with activated Trypsin solution (10 μL per well, 1.0 μg, resulting enzyme/substrate ratio 1:50) over night at RT. To stop the digestion, HCl (2 M, 8 μL final concentration 50 mM) and TFA (3.2 μL, final concentration 1%, pH<2) were added. Finally, the sample was analyzed by LC-MS at 350 nm.

Trypsin [2] = biological target: T1, Trypsin; test: Trypsin cleavage of N-terminal quantification tag Ac-nitroTyr-SGK- from peptides, LC-MS with UV detection at 350 nm; type: biochemical; conditions: for Kusebauch 24 h, RT: Percent Cleavage of Tag [by UV350 - Peptide-Tag vs. Tag]: trypsin protocol of example 9, 24 h; for cleavage efficiency in words: trypsin
Procedure: as §1, §2
38 peptides carrying the N-terminal quantification-tag Ac-nitroTyr-SGK-(SEQ ID NO:32) were synthesized by SPOT synthesis (Table 3). The peptide sequences are based on two different amino acid sequences, which in each case contain 19 different amino acids N-terminally attached to lysine (the 20 naturally occurring amino acids except cysteine).
All peptides were subjected to the same trypsin cleavage protocol as described in example 9. It is apparent that the quantification tag is efficiently cleaved (>99%) in nearly all cases.

T1 sequence (P00761 9-231): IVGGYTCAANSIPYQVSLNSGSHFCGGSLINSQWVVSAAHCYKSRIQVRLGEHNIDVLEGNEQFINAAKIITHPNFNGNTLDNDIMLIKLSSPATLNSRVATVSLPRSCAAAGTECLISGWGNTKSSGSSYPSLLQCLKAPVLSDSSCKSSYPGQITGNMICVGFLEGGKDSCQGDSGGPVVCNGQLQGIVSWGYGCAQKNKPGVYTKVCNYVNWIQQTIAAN

Row | Compound | Percent Cleavage of Tag [by UV at 350 nm] (Trypsin [1]) [%] | Kusebauch 24 h, RT: Percent Cleavage of Tag [by UV350 - Peptide-Tag vs. Tag] (Trypsin [2]) [%] | cleavage efficiency in words (Trypsin [2]) | cleavage efficiency (LC-MS and UV detection at 350 nm) (Trypsin [1]; trypsin over night at RT) [%]
1 | CC[C@H](C)[C@H](NC(=O)[C@H](Cc1ccccc1)NC(=O)[C@H](Cc1ccc(O)cc1)NC(=O)[C@H](Cc1c[nH]cn1)NC(=O)[C@@H](NC(=O)[C@H](CC(N)=O)NC(=O)[C@H](CCCCN)NC(=O)CNC(=O)[C@H](CO)NC(=O)[C@H](Cc1ccc(O)c([N+](=O)[O-])c1)NC(C)=O)[C@@H](C)O)C(=O)N[C@@H](CC(=O)O)C(=O)N[C@@H](CC(C)C)C(=O)N[C@@H](CC(N)=O)C(=O)N[C@@H](CCCCN)C(=O)O [Peptide 12, Ac-nitroTyr-SGKNTHYFIDLN-K-OH] (Ac-[Tyr(3-NO2)]SGKNTHYFIDLNK-OH) | 100 | 100.0 | – | –
2 | CC[C@H](C)[C@H](NC(=O)[C@H](Cc1ccccc1)NC(=O)[C@H](Cc1ccc(O)cc1)NC(=O)[C@H](Cc1c[nH]cn1)NC(=O)[C@@H](NC(=O)[C@@H]1CCCN1C(=O)[C@H](CCCCN)NC(=O)CNC(=O)[C@H](CO)NC(=O)[C@H](Cc1ccc(O)c([N+](=O)[O-])c1)NC(C)=O)[C@@H](C)O)C(=O)N[C@@H](CC(=O)O)C(=O)N[C@@H](CC(C)C)C(=O)N[C@@H](CC(N)=O)C(=O)N[C@@H](CCCCN)C(=O)O [Peptide 13, Ac-nitroTyr-SGKPTHYFIDLN-K-OH] (Ac-[Tyr(3-NO2)]SGKPTHYFIDLNK-OH) | 99.4 | 37.0 | not efficiently cleaved | –
3 | CC[C@H](C)[C@H](NC(=O)[C@H](Cc1ccccc1)NC(=O)[C@H](Cc1ccc(O)cc1)NC(=O)[C@H](Cc1c[nH]cn1)NC(=O)[C@@H](NC(=O)[C@H](CCC(N)=O)NC(=O)[C@H](CCCCN)NC(=O)CNC(=O)[C@H](CO)NC(=O)[C@H](Cc1ccc(O)c([N+](=O)[O-])c1)NC(C)=O)[C@@H](C)O)C(=O)N[C@@H](CC(=O)O)C(=O)N[C@@H](CC(C)C)C(=O)N[C@@H](CC(N)=O)C(=O)N[C@@H](CCCCN)C(=O)O [Peptide 14, Ac-nitroTyr-SGKQTHYFIDLN-K-OH] (Ac-[Tyr(3-NO2)]SGKQTHYFIDLNK-OH) | 99.6 | 100.0 | – | –
4 | CC[C@H](C)[C@H](NC(=O)[C@H](Cc1ccccc1)NC(=O)[C@H](Cc1ccc(O)cc1)NC(=O)[C@H](Cc1c[nH]cn1)NC(=O)[C@@H](NC(=O)[C@H](CCCNC(=N)N)NC(=O)[C@H](CCCCN)NC(=O)CNC(=O)[C@H](CO)NC(=O)[C@H](Cc1ccc(O)c([N+](=O)[O-])c1)NC(C)=O)[C@@H](C)O)C(=O)N[C@@H](CC(=O)O)C(=O)N[C@@H](CC(C)C)C(=O)N[C@@H](CC(N)=O)C(=O)N[C@@H](CCCCN)C(=O)O [Peptide 15, Ac-nitroTyr-SGKRTHYFIDLN-K-OH] (Ac-[Tyr(3-NO2)]SGKRTHYFIDLNK-OH) | 100 | 100.0 | good cleavage efficiencies | –
5 | CC[C@H](C)[C@H](NC(=O)[C@H](Cc1ccccc1)NC(=O)[C@H](Cc1ccc(O)cc1)NC(=O)[C@H](Cc1c[nH]cn1)NC(=O)[C@@H](NC(=O)[C@H](CO)NC(=O)[C@H](CCCCN)NC(=O)CNC(=O)[C@H](CO)NC(=O)[C@H](Cc1ccc(O)c([N+](=O)[O-])c1)NC(C)=O)[C@@H](C)O)C(=O)N[C@@H](CC(=O)O)C(=O)N[C@@H](CC(C)C)C(=O)N[C@@H](CC(N)=O)C(=O)N[C@@H](CCCCN)C(=O)O [Peptide 16, Ac-nitroTyr-SGKSTHYFIDLN-K-OH] (Ac-[Tyr(3-NO2)]SGKSTHYFIDLNK-OH) | 100 | 100.0 | – | –
6 | CC[C@H](C)[C@H](NC(=O)[C@H](Cc1ccccc1)NC(=O)[C@H](Cc1ccc(O)cc1)NC(=O)[C@H](Cc1c[nH]cn1)NC(=O)[C@@H](NC(=O)[C@@H](NC(=O)[C@H](CCCCN)NC(=O)CNC(=O)[C@H](CO)NC(=O)[C@H](Cc1ccc(O)c([N+](=O)[O-])c1)NC(C)=O)[C@@H](C)O)[C@@H](C)O)C(=O)N[C@@H](CC(=O)O)C(=O)N[C@@H](CC(C)C)C(=O)N[C@@H](CC(N)=O)C(=O)N[C@@H](CCCCN)C(=O)O [Peptide 17, Ac-nitroTyr-SGKTTHYFIDLN-K-OH] (Ac-[Tyr(3-NO2)]SGKTTHYFIDLNK-OH) | 100 | 100.0 | – | –
7 | CC[C@H](C)[C@H](NC(=O)[C@H](Cc1ccccc1)NC(=O)[C@H](Cc1ccc(O)cc1)NC(=O)[C@H](Cc1c[nH]cn1)NC(=O)[C@@H](NC(=O)[C@@H](NC(=O)[C@H](CCCCN)NC(=O)CNC(=O)[C@H](CO)NC(=O)[C@H](Cc1ccc(O)c([N+](=O)[O-])c1)NC(C)=O)C(C)C)[C@@H](C)O)C(=O)N[C@@H](CC(=O)O)C(=O)N[C@@H](CC(C)C)C(=O)N[C@@H](CC(N)=O)C(=O)N[C@@H](CCCCN)C(=O)O [Peptide 18, Ac-nitroTyr-SGKVTHYFIDLN-K-OH] (Ac-[Tyr(3-NO2)]SGKVTHYFIDLNK-OH) | 100 | 100.0 | – | –
8 | CC[C@H](C)[C@H](NC(=O)[C@H](Cc1ccccc1)NC(=O)[C@H](Cc1ccc(O)cc1)NC(=O)[C@H](Cc1c[nH]cn1)NC(=O)[C@@H](NC(=O)[C@H](Cc1c[nH]c2ccccc12)NC(=O)[C@H](CCCCN)NC(=O)CNC(=O)[C@H](CO)NC(=O)[C@H](Cc1ccc(O)c([N+](=O)[O-])c1)NC(C)=O)[C@@H](C)O)C(=O)N[C@@H](CC(=O)O)C(=O)N[C@@H](CC(C)C)C(=O)N[C@@H](CC(N)=O)C(=O)N[C@@H](CCCCN)C(=O)O [Peptide 19, Ac-nitroTyr-SGKWTHYFIDLN-K-OH] (Ac-[Tyr(3-NO2)]SGKWTHYFIDLNK-OH) | 100 | 100.0 | – | –
9 | CC[C@H](C)[C@H](NC(=O)[C@H](Cc1ccccc1)NC(=O)[C@H](Cc1ccc(O)cc1)NC(=O)[C@H](Cc1c[nH]cn1)NC(=O)[C@@H](NC(=O)[C@H](Cc1ccc(O)cc1)NC(=O)[C@H](CCCCN)NC(=O)CNC(=O)[C@H](CO)NC(=O)[C@H](Cc1ccc(O)c([N+](=O)[O-])c1)NC(C)=O)[C@@H](C)O)C(=O)N[C@@H](CC(=O)O)C(=O)N[C@@H](CC(C)C)C(=O)N[C@@H](CC(N)=O)C(=O)N[C@@H](CCCCN)C(=O)O [Peptide 20, Ac-nitroTyr-SGKYTHYFIDLN-K-OH] (Ac-[Tyr(3-NO2)]SGKYTHYFIDLNK-OH) | 74.7 | 100.0 | – | 75
10 | CC(=O)N[C@@H](Cc1ccc(O)c([N+](=O)[O-])c1)C(=O)N[C@@H](CO)C(=O)NCC(=O)N[C@@H](CCCCN)C(=O)N[C@@H](C)C(=O)N[C@H](C(=O)N[C@@H](C)C(=O)N[C@@H](CC(C)C)C(=O)N[C@@H](CO)C(=O)N[C@@H](CC(C)C)C(=O)N[C@@H](CC(=O)O)C(=O)N[C@@H](CC(=O)O)C(=O)N[C@H](C(=O)N[C@@H](CCCCN)C(=O)O)C(C)C)C(C)C [Peptide 21, Ac-nitroTyr-SGKAVALSLDDV-K-OH] (Ac-[Tyr(3-NO2)]SGKAVALSLDDVK-OH) | 100 | 100.0 | – | –
11 | CC(=O)N[C@@H](Cc1ccc(O)c([N+](=O)[O-])c1)C(=O)N[C@@H](CO)C(=O)NCC(=O)N[C@@H](CCCCN)C(=O)N[C@@H](CC(=O)O)C(=O)N[C@H](C(=O)N[C@@H](C)C(=O)N[C@@H](CC(C)C)C(=O)N[C@@H](CO)C(=O)N[C@@H](CC(C)C)C(=O)N[C@@H](CC(=O)O)C(=O)N[C@@H](CC(=O)O)C(=O)N[C@H](C(=O)N[C@@H](CCCCN)C(=O)O)C(C)C)C(C)C [Peptide 23, Ac-nitroTyr-SGKDVALSLDDV-K-OH] (Ac-[Tyr(3-NO2)]SGKDVALSLDDVK-OH) | 100 | 59.2 | not efficiently cleaved | –
12 | Ac-nitroTyr-SGKATHYFIDLN-K-OH (Ac-[Tyr(3-NO2)]SGKATHYFIDLNK-OH; SMILES CC[C@H](C)[C@H](NC(=O)[C@H](Cc1ccccc1)NC(=O)[C@H](Cc1ccc(O)cc1)NC(=O)[C@H](Cc1c[nH]cn1)NC(=O)[C@@H](NC(=O)[C@H](C)NC(=O)[C@H](CCCCN)NC(=O)CNC(=O)[C@H](CO)NC(=O)[C@H](Cc1ccc(O)c([N+](=O)[O-])c1)NC(C)=O)[C@@H](C)O)C(=O)N[C@@H](CC(=O)O)C(=O)N[C@@H](CC(C)C)C(=O)N[C@@H](CC(N)=O)C(=O)N[C@@H](CCCCN)C(=O)O) [Peptide 1] | 100 | 100.0 | – | –
